# From ChEMBL document CHEMBL4270553, “Synthesis and anticancer activity of new dihydropyrimidinone derivatives” (Eur J Med Chem, 2018)
# Tests used:
# MDA-MB-468 = experiment: Antiproliferative activity against human MDA-MB-468 cells assessed as growth inhibition at 10 uM after 48 hrs by sulforhodamine B assay relative to control; format: functional; settings: MDA-MB-468, 48 h, read-out: GI
# MRC5 = experiment: Cytotoxicity against human MRC5 cells; format: cell-based
# A549 [1] = experiment: Cell cycle arrest in human A549 cells assessed as accumulation of cells at G2/M phase at 2 uM after 24 hrs by propidium iodide staining-based flow cytometric analysis (reference value: 6.2%); format: functional
# HCT-15 = experiment: Antiproliferative activity against human HCT15 cells assessed as growth inhibition at 10 uM after 48 hrs by sulforhodamine B assay relative to control; format: functional; settings: HCT-15, 48 h, read-out: GI
# A549 [2] = experiment: Induction of apoptosis in human A549 cells 24 hrs by propidium iodide staining-based flow cytometric analysis (reference value: 0.92%); format: functional
# A549 [3] = experiment: Potency index, ratio of compound activity to 5-FU activity for caspase3 expression in human A549 cells; format: functional
# T47D = experiment: Antiproliferative activity against human T47D cells assessed as growth inhibition at 10 uM after 48 hrs by sulforhodamine B assay relative to control; format: functional; settings: read-out: GI
# UACC-62 = experiment: Antiproliferative activity against human UACC62 cells assessed as growth inhibition at 10 uM after 48 hrs by sulforhodamine B assay relative to control; format: functional; settings: UACC-62, 48 h, read-out: GI
# A549 [4] = experiment: Induction of apoptosis in human A549 cells assessed as caspase3 expression at 3.04 uM after 2 hrs by ELISA (reference value: 53.45 ng/ml); format: functional
# A549 [5] = experiment: Antiproliferative activity against human A549/ATCC cells assessed as growth inhibition at 10 uM after 48 hrs by sulforhodamine B assay relative to control; format: functional; settings: A549, 48 h, read-out: GI
# A549 [6] = experiment: Cell cycle arrest in human A549 cells assessed as accumulation of cells at pre-G1 phase at 2 uM after […] by propidium iodide staining-based flow cytometric analysis (reference value: 0.92%); format: functional
# HL-60(TB) = experiment: Antiproliferative activity against human HL-60(TB) cells assessed as growth inhibition at 10 uM after 48 hrs by sulforhodamine B assay relative to control; format: functional; settings: HL-60, 48 h, read-out: GI
# NCI/ADR-RES = experiment: Antiproliferative activity against human NCI/ADR-RES cells assessed as growth inhibition at 10 uM after 48 hrs by sulforhodamine B assay relative to control; format: functional; settings: read-out: GI
# LOX IMVI = experiment: Antiproliferative activity against human LOXIMVI cells assessed as growth inhibition at 10 uM after 48 hrs by sulforhodamine B assay relative to control; format: functional; settings: read-out: GI
# MOLT-4 = experiment: Antiproliferative activity against human MOLT4 cells assessed as growth inhibition at 10 uM after 48 hrs by sulforhodamine B assay relative to control; format: functional; settings: MOLT-4, 48 h, read-out: GI
# K562 = experiment: Antiproliferative activity against human K562 cells assessed as growth inhibition at 10 uM after 48 hrs by sulforhodamine B assay relative to control; format: functional; settings: K562, 48 h, read-out: GI
# NCI-H522 = experiment: Antiproliferative activity against human NCI-H522 cells assessed as growth inhibition at 10 uM after 48 hrs by sulforhodamine B assay relative to control; format: functional; settings: NCI-H522, 48 h, read-out: GI
# SF-295 = experiment: Antiproliferative activity against human SF295 cells assessed as growth inhibition at 10 uM after 48 hrs by sulforhodamine B assay relative to control; format: functional; settings: SF-295, 48 h, read-out: GI
# [7] = target: T1, Serine/threonine-protein kinase mTOR (Homo sapiens, UniProt P42345); experiment: Inhibition of mTOR (unknown origin) incubated for 1 hr by ELISA
# A549 [8] = experiment: Induction of apoptosis in human A549 cells assessed as early apoptotic cells at 2 uM after 24 hrs by Annexin V-FITC/propidium iodide staining-based flow cytometric analysis (reference value: 0.52%); format: functional
# A549 [9] = experiment: Induction of apoptosis in human A549 cells assessed as late apoptotic cells at 2 uM after 24 hrs by Annexin V-FITC/propidium iodide staining-based flow cytometric analysis (reference value: 0.33%); format: functional
# A549 [10] = experiment: Induction of apoptosis in human A549 cells assessed as caspase9 expression at 3.04 uM after 2 hrs by ELISA (reference value: 0.1726 ng/ml); format: functional
# UO-31 = experiment: Antiproliferative activity against human UO31 cells assessed as growth inhibition at 10 uM after 48 hrs by sulforhodamine B assay relative to control; format: functional; settings: UO-31, 48 h, read-out: GI
# [11] = target: T1, Serine/threonine-protein kinase mTOR; experiment: Inhibition of mTOR (unknown origin) incubated for 1 hr by ELISA relative to control; settings: concentration not given here
# A549 [12] = experiment: Induction of apoptosis in human A549 cells assessed as viable cells at 2 uM after 24 hrs by Annexin V-FITC/propidium iodide staining-based flow cytometric analysis (reference value: 97.5%); format: functional; settings: A549, 24 h, read-out: Activity
# A549 [13] = experiment: Induction of apoptosis in human A549 cells assessed as necrotic cells at 2 uM after 24 hrs by Annexin V-FITC/propidium iodide staining-based flow cytometric analysis (reference value: 0.07%); format: functional
# A549 [14] = experiment: Cell cycle arrest in human A549 cells assessed as accumulation of cells at G0/G1 phase at 2 uM after 24 hrs by propidium iodide staining-based flow cytometric analysis (reference value: 67.62%); format: functional
# [15] = Cytotoxicity against human WPE1-NA22 cells; format: cell-based
# ACHN = experiment: Antiproliferative activity against human ACHN cells assessed as growth inhibition at 10 uM after 48 hrs by sulforhodamine B assay relative to control; format: functional; settings: read-out: GI
# OVCAR-4 = experiment: Antiproliferative activity against human OVCAR4 cells assessed as growth inhibition at 10 uM after 48 hrs by sulforhodamine B assay relative to control; format: functional; settings: OVCAR-4, 48 h, read-out: GI
# SK-MEL-5 = experiment: Antiproliferative activity against human SK-MEL-5 cells assessed as growth inhibition at 10 uM after 48 hrs by sulforhodamine B assay relative to control; format: functional; settings: SK-MEL-5, 48 h, read-out: GI
# NCI-H322M = experiment: Antiproliferative activity against human NCI-H322M cells assessed as growth inhibition at 10 uM after 48 hrs by sulforhodamine B assay relative to control; format: functional; settings: read-out: GI
# MCF7 [16] = experiment: Antiproliferative activity against human MCF7 cells assessed as growth inhibition at 10 uM after 48 hrs by sulforhodamine B assay relative to control; format: functional; settings: MCF7, 48 h, read-out: GI
# A549 [17] = experiment: Cell cycle arrest in human A549 cells assessed as accumulation of cells at S phase at 2 uM after 24 hrs by propidium iodide staining-based flow cytometric analysis (reference value: 25.26%); format: functional
# SR = experiment: Antiproliferative activity against human SR cells assessed as growth inhibition at 10 uM after 48 hrs by sulforhodamine B assay relative to control; format: functional; settings: read-out: GI
# A549 [18] = experiment: Potency index, ratio of compound activity to 5-FU activity for caspase9 expression in human A549 cells; format: functional
# HeLa = experiment: Cytotoxicity against human HeLa cells; format: functional, cell-based
# BJ = experiment: Cytotoxicity against human BJ cells; format: cell-based
# HCT-116 [19] = experiment: Antiproliferative activity against human HCT116 cells assessed as growth inhibition at 10 uM after 48 hrs by sulforhodamine B assay relative to control; format: functional; settings: HCT-116, 48 h, read-out: GI
# NCI-H460 = experiment: Antiproliferative activity against human NCI-H460 cells assessed as growth inhibition at 10 uM after 48 hrs by sulforhodamine B assay relative to control; format: functional; settings: NCI-H460, 48 h, read-out: GI
# CAKI-1 = experiment: Antiproliferative activity against human Caki1 cells assessed as growth inhibition at 10 uM after 48 hrs by sulforhodamine B assay relative to control; format: functional; settings: CAKI-1, 48 h, read-out: GI
# PC-3 [20] = experiment: Antiproliferative activity against human PC3 cells assessed as growth inhibition at 10 uM after 48 hrs by sulforhodamine B assay relative to control; format: functional; settings: PC-3, 48 h, read-out: GI
# [21] = target: Kinesin-like protein KIF11 (Homo sapiens, UniProt P52732); experiment: Inhibition of human Eg5
# Sequence of Kinesin-like protein KIF11 (P52732 whole entry): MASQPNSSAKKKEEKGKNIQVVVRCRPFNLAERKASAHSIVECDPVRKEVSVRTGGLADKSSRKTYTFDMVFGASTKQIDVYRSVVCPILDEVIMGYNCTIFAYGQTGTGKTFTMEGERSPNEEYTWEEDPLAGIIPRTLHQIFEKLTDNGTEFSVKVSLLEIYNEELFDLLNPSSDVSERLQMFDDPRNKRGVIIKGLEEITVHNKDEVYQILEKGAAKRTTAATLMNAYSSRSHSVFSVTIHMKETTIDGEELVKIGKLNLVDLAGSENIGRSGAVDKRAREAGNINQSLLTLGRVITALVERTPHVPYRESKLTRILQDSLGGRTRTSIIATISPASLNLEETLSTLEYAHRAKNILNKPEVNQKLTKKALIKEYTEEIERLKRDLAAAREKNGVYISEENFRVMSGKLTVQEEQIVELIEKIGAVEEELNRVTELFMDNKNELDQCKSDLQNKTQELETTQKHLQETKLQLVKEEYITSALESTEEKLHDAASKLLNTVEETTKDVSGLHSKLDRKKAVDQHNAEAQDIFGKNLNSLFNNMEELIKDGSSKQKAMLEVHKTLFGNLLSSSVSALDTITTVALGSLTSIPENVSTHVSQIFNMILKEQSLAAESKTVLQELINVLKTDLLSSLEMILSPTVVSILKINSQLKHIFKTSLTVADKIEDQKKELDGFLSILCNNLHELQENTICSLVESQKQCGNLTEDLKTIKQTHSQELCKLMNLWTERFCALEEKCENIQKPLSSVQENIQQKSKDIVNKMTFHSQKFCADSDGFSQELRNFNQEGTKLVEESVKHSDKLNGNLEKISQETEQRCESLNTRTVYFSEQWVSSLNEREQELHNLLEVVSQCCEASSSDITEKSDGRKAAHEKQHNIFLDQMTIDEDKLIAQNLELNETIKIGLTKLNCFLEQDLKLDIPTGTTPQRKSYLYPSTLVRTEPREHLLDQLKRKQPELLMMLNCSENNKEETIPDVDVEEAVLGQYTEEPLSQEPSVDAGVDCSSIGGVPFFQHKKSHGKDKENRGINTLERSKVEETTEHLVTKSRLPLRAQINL
# NCI-H1299 = experiment: Cytotoxicity against human NCI-H1299 cells after 24 hrs by MTT assay; format: functional, cell-based; settings: NCI-H1299, 24 h
# PC-3 [22] = experiment: cells; settings: Homo sapiens, PC-3, 24 h
# Description: Cytotoxicity against human PC3 cells after 24 hrs by MTT assay
# [23] = target: Vascular endothelial growth factor receptor 2 (Homo sapiens, UniProt P35968)
# Sequence of Vascular endothelial growth factor receptor 2 (P35968 whole entry): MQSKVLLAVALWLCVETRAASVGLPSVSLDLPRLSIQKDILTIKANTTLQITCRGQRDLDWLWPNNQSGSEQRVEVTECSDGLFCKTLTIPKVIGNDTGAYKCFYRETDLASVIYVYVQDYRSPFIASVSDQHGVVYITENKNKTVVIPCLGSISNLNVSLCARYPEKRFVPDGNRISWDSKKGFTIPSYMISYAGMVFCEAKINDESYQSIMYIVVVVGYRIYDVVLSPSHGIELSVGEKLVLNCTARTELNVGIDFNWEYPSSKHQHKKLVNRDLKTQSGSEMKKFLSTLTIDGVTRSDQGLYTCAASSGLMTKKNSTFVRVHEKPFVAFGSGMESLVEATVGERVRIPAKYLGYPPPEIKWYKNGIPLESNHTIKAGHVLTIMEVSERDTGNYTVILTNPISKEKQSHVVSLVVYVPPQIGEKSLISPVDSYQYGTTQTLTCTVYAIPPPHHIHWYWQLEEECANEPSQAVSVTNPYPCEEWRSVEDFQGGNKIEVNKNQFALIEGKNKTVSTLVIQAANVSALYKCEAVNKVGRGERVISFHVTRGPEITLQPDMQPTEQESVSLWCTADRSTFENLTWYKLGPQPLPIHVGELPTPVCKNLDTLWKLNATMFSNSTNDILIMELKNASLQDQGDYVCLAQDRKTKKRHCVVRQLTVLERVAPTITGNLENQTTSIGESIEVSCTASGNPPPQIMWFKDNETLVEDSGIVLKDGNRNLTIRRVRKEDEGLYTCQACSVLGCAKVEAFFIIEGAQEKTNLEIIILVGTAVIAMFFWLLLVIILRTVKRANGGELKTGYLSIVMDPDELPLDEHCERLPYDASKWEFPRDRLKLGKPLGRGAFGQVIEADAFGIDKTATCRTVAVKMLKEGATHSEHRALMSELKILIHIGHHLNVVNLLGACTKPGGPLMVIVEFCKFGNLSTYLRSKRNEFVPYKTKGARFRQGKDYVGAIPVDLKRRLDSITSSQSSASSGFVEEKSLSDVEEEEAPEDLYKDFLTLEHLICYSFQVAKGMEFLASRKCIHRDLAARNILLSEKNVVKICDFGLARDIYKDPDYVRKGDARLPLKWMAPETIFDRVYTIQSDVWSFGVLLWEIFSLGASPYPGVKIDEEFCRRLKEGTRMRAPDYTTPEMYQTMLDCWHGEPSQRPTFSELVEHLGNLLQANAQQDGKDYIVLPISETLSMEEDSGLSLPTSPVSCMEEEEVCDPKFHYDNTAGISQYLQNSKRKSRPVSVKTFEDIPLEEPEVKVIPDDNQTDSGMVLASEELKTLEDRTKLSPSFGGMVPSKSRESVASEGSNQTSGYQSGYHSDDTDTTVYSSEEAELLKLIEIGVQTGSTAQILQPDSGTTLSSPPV
# Description: Inhibition of human VEGFR-2 incubated for 2.5 hrs by ELISA
# HCT-116 [24] = experiment: cells; settings: Homo sapiens, HCT-116, 24 h
# Description: Cytotoxicity against human HCT116 cells after 24 hrs by MTT assay
# MCF7 [25] = experiment: Cytotoxicity against human MCF7 cells after 24 hrs by MTT assay; format: functional, cell-based; settings: MCF7, 24 h
# A549 [26] = experiment: Induction of apoptosis in human A549 cells assessed as caspase9 expression at 7.4 uM after 2 hrs by ELISA (reference value: 0.1726 ng/ml); format: functional
# A549 [27] = experiment: Induction of apoptosis in human A549 cells assessed as caspase3 expression at 7.4 uM after 2 hrs by ELISA (reference value: 53.45 ng/ml); format: functional
smiles,measurement,setting,value
CCOC(=O)C1=C(CSC(=S)N(C2CCCCC2)C2CCCCC2)N(C)C(=O)NC1c1ccccc1 (stereo unspecified),inhibition of growth at 10 µM,MDA-MB-468,53%
same,IC50,MRC5,32 µM
same,Activity,A549 [1],12.41%
same,inhibition of growth at 10 µM,HCT-15,61%
same,Activity,A549 [2],7.39%
same,Ratio,A549 [3],10
same,inhibition of growth at 10 µM,T47D,50%
same,inhibition of growth at 10 µM,UACC-62,54%
same,Activity,A549 [4],560.4 ng/mL
same,inhibition of growth at 10 µM,A549 [5],53%
same,Activity,A549 [6],7.39%
same,inhibition of growth at 10 µM,HL-60(TB),85%
same,inhibition of growth at 10 µM,NCI/ADR-RES,37%
same,inhibition of growth at 10 µM,LOX IMVI,67%
same,inhibition of growth at 10 µM,MOLT-4,72%
same,inhibition of growth at 10 µM,K562,65%
same,inhibition of growth at 10 µM,NCI-H522,42%
same,inhibition of growth at 10 µM,SF-295,61%
same,IC50,[7],0.64 µM
same,Activity,A549 [8],3.27%
same,Activity,A549 [9],3.31%
same,Activity,A549 [10],18.14 ng/mL
same,inhibition of growth at 10 µM,UO-31,56%
same,inhibition,[11],86.6%
same,viability at 2 µM,A549 [12],90.7%
same,Activity,A549 [13],0.81%
same,Activity,A549 [14],58.25%
same,IC50,[15],32.1 µM
same,inhibition of growth at 10 µM,ACHN,63%
same,inhibition of growth at 10 µM,OVCAR-4,56%
same,inhibition of growth at 10 µM,SK-MEL-5,86%
same,inhibition of growth at 10 µM,NCI-H322M,9%
same,inhibition of growth at 10 µM,MCF7 [16],54%
same,Activity,A549 [17],21.95%
same,inhibition of growth at 10 µM,SR,71%
same,Ratio,A549 [18],100
same,IC50,HeLa,1.85 µM
same,IC50,BJ,18.2 µM
same,inhibition of growth at 10 µM,HCT-116 [19],74%
same,inhibition of growth at 10 µM,NCI-H460,88%
same,inhibition of growth at 10 µM,CAKI-1,75%
same,inhibition of growth at 10 µM,PC-3 [20],79%
CCOC(=O)C1=C(C)NC(=O)NC1c1cccc(O)c1 (stereo unspecified),IC50,[21],14 µM
CCOC(=O)C1=C(C)Nc2nc3ccccc3n2C1c1c(O)ccc2ccccc12 (stereo unspecified),IC50,NCI-H1299,40 µM
same,IC50,PC-3 [22],37 µM
CCOC(=O)C1=C(CSc2nc3cc([N+](=O)[O-])ccc3[nH]2)N(C)C(=O)NC1c1ccccc1 (stereo unspecified),IC50,MRC5,44.2 µM
same,IC50,[23],1.2 µM
same,IC50,HCT-116 [24],7.29 µM
same,IC50,MCF7 [25],9.39 µM
same,IC50,[7],0.72 µM
same,inhibition,[11],84.6%
same,IC50,[15],21.7 µM
same,IC50,PC-3 [22],9.18 µM
same,IC50,HeLa,1.4 µM
same,IC50,BJ,37.5 µM
O=c1[nH]cc(F)c(=O)[nH]1 [FLUOROURACIL],Activity,A549 [1],21.04%
same,Activity,A549 [2],15.52%
same,Activity,A549 [6],15.52%
same,Activity,A549 [8],6.37%
same,Activity,A549 [9],6.59%
same,viability at 2 µM,A549 [12],82.7%
same,Activity,A549 [13],2.52%
same,Activity,A549 [14],47.36%
same,Activity,A549 [26],16.84 ng/mL
same,Activity,A549 [17],16.08%
same,Activity,A549 [27],582.1 ng/mL
